{"source": "patent US7635719B2", "about": "“Use of adamatyl methoxydiphenyl propenoic acid for the treatment of acne” (Sigma-Tau Industrie Farmaceutiche Riunite S.p.A., priority 2005, dated 2009)", "key": {"[1]": {"tested_on": "epidermal utriculi (comedones) of rhino mice", "assay": "Comedolytic action of ST1898 (Formulation 2) on epidermal pseudocomedones in rhino mice", "assay_type": "in vivo, rhino (RHJ/LeJ) mice", "procedure": "Formulations: ST1898 0.1 and 0.05% in the vehicle.\nVehicle: carbomer 980, propylene glycol, poloxamer, disodium edentate, methyl hydroxybenzoate, phenoxyethanol, sodium hydroxide and purified water).\nAdapalene (Differin Gel®) was used as reference compound (0.1%).\n(§1) 30 rhino (RHJ/LeJ) mice (Jackson Laboratory), 15 male and 15 female (6-8 weeks of age) were subdivided in 6 mice/group. Two groups were treated with ST1898 (Formulation 2) (0.1% and 0.05% in the vehicle), a group with adapalene (Differin® gel), used as reference compound (0.1%), a group with the vehicle (the same of the formulation of Differin® gel: carbomer 980, propylene glycol, poloxamer, disodium edentate, methyl hydroxybenzoate, phenoxyethanol, sodium hydroxide and purified water).\nA group was not treated (control). The drugs (50 μl) were applied with a sterile gloved finger topically on the dorsal skin (massage for 30-45 sec), once daily for 5 consecutive days/week (excluding Saturdays and Sundays) for 3 consecutive […]. Three days after the last application, mice were sacrificed by cervical dislocation. Two skin punch biopsies (6 mm) were taken immediately after death from all sacrificed animals. The biopsies were formalin-fixed (10% buffered formalin solution) and paraffin-embedded.\nQuantitative histological image analysis was evaluated as the total number of epidermal utriculi (comedones) per centimeter of stratum corneum length, the comedo profile, and the epidermal thickness. From one biopsy, three 3-μm thick skin sections were obtained at 150 μm intervals and were stained with hematoxylin-eosin. The second biopsy was kept stored for records.\nAssisted computer morphometric analysis of the stained skin sections was performed using a Zeiss KS300.3 system (parameters n. 1, 3 and 4). For total length of the stratum corneum measurement a micrometric equipment was used. The following microscopic parameters were measured:\n1) on each open epidermal utriculum/comedo the largest diameter or diameter taken at half depth (D) and diameter of the surface orifice (d),\n2) length of the three sections, taken as total length of the stratum corneum,\n3) total number of epidermal utriculi/comedones in the three sections,\n4) in interfollicular areas, surface (S) of the epidermis and length (L) of the corresponding basal layer.\n1) number of utriculi/(comedones)/length of stratum corneum (cm);\n2) Comedo profile, calculated as r=d/D,\n3) epidermal thickness, calculated as S/L in […]m.\nA topical application on the dorsal skin (massage for 30-45 sec) was performed of 50 μl applied with a gloved finger. The treatment was done once daily for 5 consecutive days/week (excluding Saturdays and Sundays) for 3 consecutive weeks. […]"}, "[2]": {"assay": "Body weight of rhino mice treated with ST1898 (Formulation 2) or adapalene", "assay_type": "in vivo, rhino (RHJ/LeJ) mice", "procedure": "as §1\nA topical application on the dorsal skin (massage for 30-45 sec) was performed of 50 μl applied with a gloved finger. The treatment was done once daily for 5 consecutive days/week (excluding Saturdays and Sundays) for 3 consecutive weeks.\nDuring the treatment, the body weight of mice was recorded to control the healthy status of mice. No significative variation in body weight was found (table 2).\nMice were sacrificed 3 days after the last treatment. The vehicle used for ST1898 (Formulation 2) was the same of Differin gel (carbomer 980, propylene glycol, poloxamer, disodium edentate, methyl hydroxybenzoate, phenoxyethanol, sodium hydroxide and purified water)."}}}
{"smiles": "COc1ccc(-c2ccc3cc(C(=O)O)ccc3c2)cc1C12CC3CC(CC(C3)C1)C2", "note": "[Adapalene, reference compound]", "values": [{"measurement": "Comedones (n/cm)", "setting": "[1]; 0.1% gel (Formulation 2 / Differin gel), topical 50 μl qdx5/wx3w, mean ± SD, untreated 57.35, vehicle 57.27", "value": "28.31 ± 2.92", "unit": "n/cm"}, {"measurement": "Comedo profile (r = d/D)", "setting": "[1]; 0.1% gel, topical 50 μl qdx5/wx3w, mean ± SD, untreated 0.62, vehicle 0.61", "value": "1.24 ± 0.11"}, {"measurement": "Epidermal thickness (μm)", "setting": "[1]; 0.1% gel, topical 50 μl qdx5/wx3w, mean ± SD, untreated 20.90, vehicle 20.56", "value": "57.33 ± 9.99", "unit": "μm"}, {"measurement": "Histological analysis: interfollicular epidermis (in words)", "setting": "[1]; skin of treated rhino mice", "value": "hyperplasia of interfollicular epidermis"}, {"measurement": "Initial body weight gr ± SE", "setting": "[2]; 0.1% group, before treatment", "value": "21.3 ± 1.1", "unit": "gr"}, {"measurement": "Body weight loss max (%)", "setting": "[2]; 0.1% topical qdx5/wx3w", "value": 4, "unit": "%"}, {"measurement": "Final body weight gr ± SE", "setting": "[2]; 0.1% topical qdx5/wx3w", "value": "21.2 ± 1.3", "unit": "gr"}]}
